Measurements reported in patent US10336730B2, “Substituted glycine derived FXIA inhibitors” (BRISTOL-MYERS SQUIBB COMPANY, priority 2015, dated 2019).

Legend:
[1] = molecular target: T1, purified human plasma kallikrein (Homo sapiens, UniProt P03952); test: Plasma kallikrein enzyme inhibition assay (chromogenic substrate S-2302), Ki; type: biochemical; conditions: substrate S-2302, pH 7.5
T1 construct: purchased Enzyme Research Laboratories
Experimental: The effectiveness of compounds of the present invention as inhibitors of the coagulation Factors XIa, VIIa, IXa, Xa, XIIa, plasma kallikrein, thrombin, chemytrypsin or trypsin can be determined using a relevant purified serine protease, respectively, and an appropriate synthetic substrate. The rate of hydrolysis of the chromogenic or fluorogenic substrate by the relevant serine protease was measured both in the absence and presence of compounds of the present invention. […] A decrease in the rate of absorbance or fluorescence change in the presence of inhibitor is indicative of enzyme inhibition. Such methods are known to one skilled in the art. The results of this assay are expressed as the inhibitory constant, Ki.
Plasma kallikrein determinations were made in 0.1 M sodium phosphate buffer at a pH of 7.5 containing 0.1-0.2 M sodium chloride and 0.5% PEG 8000. Determinations were made using purified human plasma kallikrein (Enzyme Research Laboratories) at a final assay concentration of […] and the synthetic substrate S-2302 (H-(D)-Pro-Phe-Arg-pNA; CHROMOGENIX®) at a concentration of 0.00008-0.0004 M.
Values of Ki were determined by allowing the protease to react with the substrate in the presence of the inhibitor. Reactions were allowed to go for periods of 20-180 minutes (depending on the protease) and the velocities (rate of absorbance or fluorescence change versus time) were measured. The following relationships were used to calculate Ki values: (Vmax*S)/(Km+S) (vo−vs)/vs=I/(Ki*(1+S/Km)) for a competitive inhibitor with one binding site; or vs/vo=A+(B−A)/(1+(IC50/(I)^n)); and Ki=IC50/(1+S/Km) for a competitive inhibitor where: […]

[2] = molecular target: T2, purified human Factor XIa (Homo sapiens, UniProt P03951); test: Factor XIa enzyme inhibition assay (chromogenic substrate S-2366), Ki; type: biochemical; conditions: substrate S-2366, pH 7.4
T2 construct: purchased Haematologic Technologies
T2 sequence (P03951 388-625 limits assumed): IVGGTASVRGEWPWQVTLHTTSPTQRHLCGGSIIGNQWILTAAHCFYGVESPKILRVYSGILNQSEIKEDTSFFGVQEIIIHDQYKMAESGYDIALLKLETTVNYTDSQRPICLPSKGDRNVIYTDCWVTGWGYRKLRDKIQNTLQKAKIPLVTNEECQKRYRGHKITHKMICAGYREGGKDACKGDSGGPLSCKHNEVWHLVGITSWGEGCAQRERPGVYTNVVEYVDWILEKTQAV
T2 sequence (P03951 19-387 partner limits assumed): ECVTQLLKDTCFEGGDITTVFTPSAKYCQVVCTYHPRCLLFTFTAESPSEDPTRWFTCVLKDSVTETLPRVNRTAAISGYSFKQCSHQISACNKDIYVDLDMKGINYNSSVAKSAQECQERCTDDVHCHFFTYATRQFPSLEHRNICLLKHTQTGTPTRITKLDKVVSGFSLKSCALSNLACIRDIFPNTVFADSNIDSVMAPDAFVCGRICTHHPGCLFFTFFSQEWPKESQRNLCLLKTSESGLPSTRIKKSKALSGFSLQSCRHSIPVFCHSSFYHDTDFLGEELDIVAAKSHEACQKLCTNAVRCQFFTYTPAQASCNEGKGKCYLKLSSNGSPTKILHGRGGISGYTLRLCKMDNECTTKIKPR
Summary of the method: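 Purified human Factor XIa ([…] final) with chromogenic substrate S-2366 (0.0002-0.001 M) in 50 mM HEPES pH 7.4, 145 mM NaCl, 5 mM KCl, 0.1% PEG 8000. Velocities measured over 20-180 minutes with and without inhibitor; Ki derived assuming competitive inhibition, e.g. Ki=IC50/(1+S/Km).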

T1 sequence (P03952 391-638 limits assumed): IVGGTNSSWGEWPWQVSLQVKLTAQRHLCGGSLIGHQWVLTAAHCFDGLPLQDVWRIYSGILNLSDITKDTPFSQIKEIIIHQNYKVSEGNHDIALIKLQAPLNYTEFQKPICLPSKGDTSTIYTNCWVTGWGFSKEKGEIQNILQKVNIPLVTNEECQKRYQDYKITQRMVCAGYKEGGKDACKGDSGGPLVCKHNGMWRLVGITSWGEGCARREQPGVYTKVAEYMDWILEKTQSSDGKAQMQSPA
T1 sequence (P03952 20-390 partner limits assumed): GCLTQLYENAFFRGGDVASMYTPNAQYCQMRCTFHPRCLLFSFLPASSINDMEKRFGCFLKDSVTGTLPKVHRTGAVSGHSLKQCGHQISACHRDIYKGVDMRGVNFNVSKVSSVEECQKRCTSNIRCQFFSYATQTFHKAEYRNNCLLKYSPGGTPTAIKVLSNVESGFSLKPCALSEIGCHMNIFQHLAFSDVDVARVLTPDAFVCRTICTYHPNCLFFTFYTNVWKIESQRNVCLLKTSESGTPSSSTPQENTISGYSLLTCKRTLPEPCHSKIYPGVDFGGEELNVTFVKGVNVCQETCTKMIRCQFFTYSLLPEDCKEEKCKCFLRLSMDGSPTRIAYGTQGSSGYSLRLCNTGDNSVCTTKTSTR

| Ki [1] | Ki [2] | Compound |
| --- | --- | --- |
| 2100 nM | 56.4 nM | O=C(O)Cn1cc(NC(=O)[C@H](Cc2ccccc2)n2cnc(-c3cc(Cl)ccc3-n3cc(Cl)nn3)cc2=O)cn1 [Example 11, 2-{4-[(2S)-2-{4-[5-Chloro-2-(4-chloro-1H-1,2,3-triazol-1-yl)phenyl]-6-oxo-1,6-dihydropyrimidin-1-yl}-3-phenyl-propanamido]-1H-pyrazol-1-yl}acetic Acid] |
| 569 nM | 5.5 nM | O=C(O)c1ccc(NC(=O)[C@H](Cc2ccccc2)n2ncc(-c3cc(Cl)ccc3-n3cc(C(F)(F)F)nn3)cc2=O)cc1 [Example 143, 4-[(2S)-2-(4-{5-Chloro-2-[4-(trifluoromethyl)-1H-1,2,3-triazol-1-yl]phenyl}-6-oxo-1,6-dihydropyridazin-1-yl)-3-phenyl-propanamido]benzoic Acid] |
| 1480 nM | 35.7 nM | O=C(Nc1ccccc1)[C@H](Cc1ccccc1)n1cnc(-c2cc(Cl)ccc2-n2cc(Cl)nn2)cc1=O [Example 12, (S)-2-(4-(5-chloro-2-(4-chloro-1H-1,2,3-triazol-1-yl)phenyl)-6-oxopyrimidin-1(6H)-yl)-N,3-diphenylpropanamide] |
| 257 nM | 26 nM | O=C(Nc1ccc2[nH]c(C(F)(F)F)nc2c1)[C@H](Cc1ccccc1)n1cnc(-c2cc(Cl)ccc2-n2cc(Cl)nn2)cc1=O [Example 16, (S)-2-(4-(5-chloro-2-(4-chloro-1H-1,2,3-triazol-1-yl)phenyl)-6-oxopyrimidin-1(6H)-yl)-3-phenyl-N-(2-(trifluoromethyl)-1H-benzo[d]imidazol-5-yl)propanamide] |
| 3860 nM | 104 nM | COC(=O)Cn1cc(NC(=O)[C@H](Cc2ccccc2)n2cnc(-c3cc(Cl)ccc3-n3cc(Cl)nn3)cc2=O)cn1 [Example 10, Methyl 2-{4-[(2S)-2-{4-[5-chloro-2-(4-chloro-1H-1,2,3-triazol-1-yl)phenyl]-6-oxo-1,6-dihydropyrimidin-1-yl}-3-phenylpropanamido]-1H-pyrazol-1-yl}acetate] |
| 984 nM | 43.6 nM | O=C(Nc1ccncc1)[C@H](Cc1ccccc1)n1cnc(-c2cc(Cl)ccc2-n2cc(Cl)nn2)cc1=O [Example 13, (S)-2-(4-(5-chloro-2-(4-chloro-1H-1,2,3-triazol-1-yl)phenyl)-6-oxopyrimidin-1(6H)-yl)-3-phenyl-N-(pyridin-4-yl)propanamide] |
| 6900 nM | 1030 nM | O=C(O)c1ccc(NC(=O)[C@H](Cc2ccccc2)n2ncc(-c3c(F)ccc(Cl)c3F)cc2=O)cc1 [Example 144, 4-[(2S)-2-[4-(3-Chloro-2,6-difluorophenyl)-6-oxo-1,6-dihydropyridazin-1-yl]-3-phenylpropanamido]benzoic Acid] |
| 1480 nM | 99.4 nM | O=C(Nc1ccc2c(c1)OCO2)[C@H](Cc1ccccc1)n1cnc(-c2cc(Cl)ccc2-n2cc(Cl)nn2)cc1=O [Example 18, (S)—N-(benzo[d][1,3]dioxol-5-yl)-2-(4-(5-chloro-2-(4-chloro-1H-1,2,3-triazol-1-yl)phenyl)-6-oxopyrimidin-1(6H)-yl)-3-phenylpropanamide] |
| – | 41.6 nM | N#Cc1cccc(C[C@@H](C(=O)Nc2ccc(C(=O)O)cc2)N2CCC(c3cc(Cl)ccc3-n3ccnn3)=CC2=O)c1 [Compound 138, (S)-4-(2-(4-(5-chloro-2-(1H-1,2,3-triazol-1-yl)phenyl)-6-oxo-3,6-dihydropyridin-1(2H)-yl)-3-(3-cyanophenyl)propanamido) benzoic Acid] |
| – | 3110 nM | Cn1ccnc1N1CCN(C(=O)[C@H](Cc2ccccc2)n2cnc(-c3cc(Cl)ccc3-n3cc(Cl)nn3)cc2=O)CC1 [Example 83, (S)-6-(5-chloro-2-(4-chloro-1H-1,2,3-triazol-1-yl)phenyl)-3-(1-(4-(1-methyl-1H-imidazol-2-yl)piperazin-1-yl)-1-oxo-3-phenylpropan-2-yl)pyrimidin-4(3H)-one] |
| – | 7370 nM | O=C([C@H](Cc1ccccc1)n1cnc(-c2cc(Cl)ccc2-n2cc(Cl)nn2)cc1=O)N1CCC(N2C(=O)CCC2O)CC1 (mixture of isomers) [Example 49, 6-(5-chloro-2-(4-chloro-1H-1,2,3-triazol-1-yl)phenyl)-3-((2S)-1-(4-(2-hydroxy-5-oxopyrrolidin-1-yl)piperidin-1-yl)-1-oxo-3-phenylpropan-2-yl)pyrimidin-4(3H)-one] |
| – | 3.24 nM | O=C(O)c1ccc(NC(=O)[C@H](Cc2ccccc2)N2CCC(c3c(-n4ccnn4)ccc(Cl)c3F)=CC2=O)cc1 [Example 137, 4-[(2S)-2-{4-[3-chloro-2-fluoro-6-(1H-1,2,3-triazol-1-yl)phenyl]-6-oxo-1,2,3,6-tetrahydropyridin-1-yl}-3-phenylpropanamido]benzoic Acid] |
| – | 1220 nM | O=C(NCc1ccc(Cl)cc1)[C@H](Cc1ccccc1)n1cnc(-c2cc(Cl)ccc2-n2cc(Cl)nn2)cc1=O [Example 76, (S)-2-(4-(5-chloro-2-(4-chloro-1H-1,2,3-triazol-1-yl)phenyl)-6-oxopyrimidin-1(6H)-yl)-N-(4-chlorobenzyl)-3-phenylpropanamide] |
| – | 110 nM | Cc1ncn(-c2ccc(NC(=O)[C@H](Cc3ccccc3)n3cnc(-c4cc(Cl)ccc4-n4cc(Cl)nn4)cc3=O)cn2)n1 [Example 39, (S)-2-(4-(5-chloro-2-(4-chloro-1H-1,2,3-triazol-1-yl)phenyl)-6-oxopyrimidin-1(6H)-yl)-N-(6-(3-methyl-1H-1,2,4-triazol-1-yl)pyridin-3-yl)-3-phenylpropanamide] |
| – | 7370 nM | CC(=O)N1CCN(C(=O)[C@H](Cc2ccccc2)n2cnc(-c3cc(Cl)ccc3-n3cc(Cl)nn3)cc2=O)CC1 [Example 60, (S)-3-(1-(4-acetylpiperazin-1-yl)-1-oxo-3-phenylpropan-2-yl)-6-(5-chloro-2-(4-chloro-1H-1,2,3-triazol-1-yl)phenyl)pyrimidin-4(3H)-one] |
| – | 463 nM | Cc1nc2ccc(CNC(=O)[C@H](Cc3ccccc3)n3cnc(-c4cc(Cl)ccc4-n4cc(Cl)nn4)cc3=O)cc2[nH]1 [Example 116, (S)-2-(4-(5-chloro-2-(4-chloro-1H-1,2,3-triazol-1-yl)phenyl)-6-oxopyrimidin-1(6H)-yl)-N-((2-methyl-1H-benzo[d]imidazol-6-yl)methyl)-3-phenylpropanamide] |
| – | 3990 nM | CN1[C@@H]2CC[C@H]1C[C@@H](NC(=O)[C@H](Cc1ccccc1)n1cnc(-c3cc(Cl)ccc3-n3cc(Cl)nn3)cc1=O)C2 [Example 54, (S)-2-(4-(5-chloro-2-(4-chloro-1H-1,2,3-triazol-1-yl)phenyl)-6-oxopyrimidin-1(6H)-yl)-N-((1R,3r,5S)-8-methyl-8-azabicyclo[3.2.1]octan-3-yl)-3-phenylpropanamide] |
| – | 98.4 nM | O=C1NCc2cc(F)c(NC(=O)[C@H](Cc3ccccc3)n3cnc(-c4cc(Cl)ccc4-n4cc(Cl)nn4)cc3=O)cc21 [Example 38, (S)-2-(4-(5-chloro-2-(4-chloro-1H-1,2,3-triazol-1-yl)phenyl)-6-oxopyrimidin-1(6H)-yl)-N-(6-fluoro-3-oxoisoindolin-5-yl)-3-phenylpropanamide] |
| – | 210 nM | CC(C)CCNC(=O)[C@H](Cc1ccccc1)n1cnc(-c2cc(Cl)ccc2-n2cc(Cl)nn2)cc1=O [Example 87, (S)-2-(4-(5-chloro-2-(4-chloro-1H-1,2,3-triazol-1-yl)phenyl)-6-oxopyrimidin-1(6H)-yl)-N-isopentyl-3-phenylpropanamide] |
| 13300 nM | 357 nM | O=C(NCc1ccccc1)[C@H](Cc1ccccc1)n1cnc(-c2cc(Cl)ccc2-n2cc(Cl)nn2)cc1=O [Example 19, (S)—N-benzyl-2-(4-(5-chloro-2-(4-chloro-1H-1,2,3-triazol-1-yl)phenyl)-6-oxopyrimidin-1(6H)-yl)-3-phenylpropanamide] |
